# In patent US11261189B2, “Substituted 2,4 diamino-quinoline as new medicament for fibrosis, autophagy and cathepsins B (CTSB), L (CTSL) and D (CTSD) related diseases” (Genoscience Pharma, priority 2018, dated 2022):
# “Also recorded” adds a separate entry of the source. Where a name gives a salt, the structure may show the parent alone.
# Tests used:
# [1] = test system: autophagy flux (LC3-II) in Huh7 cell line; assay: Autophagy flux, LC3-II immunoblot with/without Bafilomycin, Huh7 cell line; format: cell-based; settings: 4 hours and 24 hours of treatment
# Experimental: (§1) Since compound 2-3 induced an inhibition of the proteolytic activity of cathepsins B, D and/or L (see example 1) supporting an inhibition of some lysosomal functions which can affect the cellular autophagy flux, the capacity of compound 2-3 to modulate the cellular autophagy processes and functions was evaluated in two Hepatocellular carcinoma (HCC) cell lines: Huh7 and HepG2. For this purpose, the accumulation of LC3-II (Light Chain 3 phosphatidylethanolamine conjugate) in presence or absence of compound 2-3 was analyzed using immunoblot analysis of LC3-II.
# (§2) The HepG2 cell line was maintained in DMEM low glucose (Cat #21885025, ThermoFischer) containing 1% penicillin-streptomycin (Cat #P06-07100, Dutscher) and 10% FBS (Cat #SV30160.03C, Dutscher). The Huh7 cell line was maintained in DMEM high glucose (Cat #L0103-500, Dutscher) containing 1% penicillin-streptomycin (Cat #P06-07100, Dutscher) and 10% SVF (Cat #SV30160.03C, Dutscher). Cells lines were cultured at 37° C. with 5% CO2.
# (§3) The day before the experiment, 6-well plates with 250,000 cells for HepG2 and 310,000 cells for Huh7 in 1.8 mL of medium per well were prepared. […]
# (§4) After 4 hours and 24 hours of cells treatment, the medium was removed from each well. […] Total protein concentration was assessed using the BCA reagent (Cat #23227, ThermoFischer) and cellular lysates were stored at −80° C. until western-blot analysis. […]
# [2] = test system: autophagy flux (LC3-II) in HepG2 cell line; assay: Autophagy flux, LC3-II immunoblot with/without Bafilomycin, HepG2 cell line; format: cell-based; settings: 4 hours and 24 hours of treatment
# Experimental: as §1, §2, §3, §4
compound,measurement,setting,value
"CC(C)(C)NC1CCN(c2cc(NCc3ccc(Cl)cc3)nc3ccccc23)CC1 [2-3, 2-(4-chlorobenzylamino)-4-(4-tert-butylaminopiperidin-1-yl)-quinoline Hydrochloride Salt]",accumulation of the LC3-II form,[1],"significantly induced, in a dose-dependent manner, an accumulation of the LC3-II form"
same,autophagy flux (LC3-II Baf+/Baf− ratio),[1]; Hydrochloride Salt,inhibition; also recorded: inhibitor of the autophagy flux
same,accumulation of the LC3-II form,[2],"significantly induced, in a dose-dependent manner, an accumulation of the LC3-II form"
same,autophagy flux (LC3-II Baf+/Baf− ratio),[2]; Hydrochloride Salt,inhibition; also recorded: inhibitor of the autophagy flux
